What was measured:
[1] = system: Hepatitis C virus; test: Antiviral activity against Hepatitis C virus genotype 1b by cell based assay; type: functional, organism-based, Hepacivirus hominis
[2] = system: Hepatitis C virus; test: Antiviral activity against Hepatitis C virus genotype 1a by cell based assay; type: functional, organism-based, Hepacivirus hominis; details: subtype 1a
[3] = Inhibition of Hepatitis C virus genotype 1a NS3/4A protease activity using Ac-DE-Dap(QXL520)-EE-Abu-w-[COO]-ASC(5-FAMsp)-NH2 peptide substrate by FRET assay; parameters: species or system Hepatitis C virus subtype 1a
[4] = Inhibition of Hepatitis C virus genotype 1a NS3/4A protease activity using (Ac-DE-D(EDANS)-EE-Abu-w-[COO]-AS-K(DABCYL)-NH2 peptide substrate by FRET assay; parameters: species or system Hepatitis C virus subtype 1a
[5] = Absorption in Sprague-Dawley rat at 5 mg/kg, po; type: ADME, organism-based; parameters: dose 5 mg/kg, route oral; details: in vivo, read-out: Activity
[6] = AUC (0 to infinity) in Sprague-Dawley rat at 5 mg/kg, po; type: ADME, organism-based; parameters: dose 5 mg/kg, route oral, time infinity; details: plasma
[7] = Clearance in Sprague-Dawley rat at 1 mg/kg, iv; type: ADME, organism-based; parameters: dose 1 mg/kg, route intravenous; details: in vivo
[8] = Oral bioavailability in Sprague-Dawley rat at 5 mg/kg, po; type: ADME, organism-based; details: in vivo
[9] = Lipophilicity, log D of the compound; type: physicochemical; details: octanol/water

| SMILES | EC50 [1] [nM] | EC50 [2] [nM] | IC50 [3] [nM] | IC50 [4] [nM] | Fa [5] [%] | AUC(0-inf) [6] [ng·h/mL] | clearance [7] [mL/min/kg] | bioavailability [8] [%] | logD [9] |
| --- | --- | --- | --- | --- | --- | --- | --- | --- | --- |
| C=C[C@@H]1C[C@]1(NC(=O)[C@@H]1C[C@@H](Oc2ncc(OC)c3ccc(Cl)cc23)CN1C(=O)[C@@H](NC(=O)Nc1cc2c(cc1F)COB2O)C(C)(C)C)C(=O)NS(=O)(=O)C1CC1 | 4.3 | 31 | 1.7 |  |  |  |  |  |  |
| C=C[C@@H]1C[C@]1(NC(=O)[C@@H]1C[C@@H](Oc2ncc(OC)c3ccc(Cl)cc23)CN1C(=O)[C@@H](NC(=O)Nc1cccc2c1COB2O)C(C)(C)C)C(=O)NS(=O)(=O)C1CC1 | 81 | 500 |  | 4 |  |  |  |  |  |
| C=C[C@@H]1C[C@]1(NC(=O)[C@@H]1C[C@@H](Oc2ncc(OC)c3ccc(Cl)cc23)CN1C(=O)[C@@H](NC(=O)Nc1cccc2c1B(O)OC2)C(C)(C)C)C(=O)NS(=O)(=O)C1CC1 | 38 | 65 |  | 16 |  |  |  |  |  |
| C=C[C@@H]1C[C@]1(NC(=O)[C@@H]1C[C@@H](Oc2ncc(OC)c3ccc(Cl)cc23)CN1C(=O)[C@@H](NC(=O)c1ccc2c(c1)B(O)OC2)C(C)(C)C)C(=O)NS(=O)(=O)C1CC1 | 91 | 290 |  | 4.6 |  |  |  |  |  |
| C=C[C@@H]1C[C@]1(NC(=O)[C@@H]1C[C@@H](Oc2ncc(OC)c3ccc(Cl)cc23)CN1C(=O)[C@@H](NC(=O)NCc1ccc2c(c1)B(O)OC2)C(C)(C)C)C(=O)NS(=O)(=O)C1CC1 | 25 | 130 |  | 2 |  |  |  |  |  |
| C=C[C@@H]1C[C@]1(NC(=O)[C@@H]1C[C@@H](Oc2ncc(OC)c3ccc(Cl)cc23)CN1C(=O)[C@@H](Nc1ccc2c(c1)B(O)OC2)C(C)(C)C)C(=O)NS(=O)(=O)C1CC1 | 34 | 110 |  | 4.5 | 4.9 | 75 | 48.8 | 4.3 | 4 |
| C=C[C@@H]1C[C@]1(NC(=O)[C@@H]1C[C@@H](Oc2ncc(OC)c3ccc(Cl)cc23)CN1C(=O)C(Nc1ccc2c(c1)B(O)OC2)C(C)(C)C)C(=O)NS(=O)(=O)C1CC1 (single isomer, unassigned; diastereomer 2) |  |  |  | 350 |  |  |  |  |  |
| C=C[C@@H]1C[C@]1(NC(=O)[C@@H]1C[C@@H](Oc2ncc(OC)c3ccc(Cl)cc23)CN1C(=O)[C@@H](NC(=O)Nc1ccc2c(c1)B(O)OC2)C(C)(C)C)C(=O)NS(=O)(=O)C1CC1 | 24 | 160 | 2.2 |  | 0.92 | 41 | 7.93 | 0.42 | 4.5 |

The remaining compounds from weak to strong by EC50 [1], led by results:

| EC50 [1] [nM] | EC50 [2] [nM] | IC50 [3] [nM] | IC50 [4] [nM] | Fa [5] [%] | AUC(0-inf) [6] [ng·h/mL] | clearance [7] [mL/min/kg] | bioavailability [8] [%] | logD [9] | SMILES |
| --- | --- | --- | --- | --- | --- | --- | --- | --- | --- |
| 130 | 280 |  | 26 |  |  |  |  |  | C=C[C@@H]1C[C@]1(NC(=O)[C@@H]1C[C@@H](Oc2ncc(OC)c3ccc(Cl)cc23)CN1C(=O)[C@@H](NC(=O)Nc1ccc2c(c1)B(O)OC2(C)C)C(C)(C)C)C(=O)NS(=O)(=O)C1CC1 |
| 56 | 360 | 1.1 |  |  |  |  |  |  | C=C[C@@H]1C[C@]1(NC(=O)[C@@H]1C[C@@H](OC(=O)N2Cc3cccc(F)c3C2)CN1C(=O)[C@@H](NC(=O)Nc1cc2c(cc1F)COB2O)C(C)(C)C)C(=O)NS(=O)(=O)C1CC1 |
| 34 | 47 |  | 1.3 |  |  |  |  |  | C=C[C@@H]1C[C@]1(NC(=O)[C@@H]1C[C@@H](Oc2ncc(OC)c3ccc(Cl)cc23)CN1C(=O)[C@@H](NC(=O)Nc1cc2c(cc1Cl)COB2O)C(C)(C)C)C(=O)NS(=O)(=O)C1CC1 |
| 23 | 170 | 1.3 |  |  |  |  |  |  | C=C[C@@H]1C[C@]1(NC(=O)[C@@H]1C[C@@H](Oc2ncc(OC)c3ccc(Cl)cc23)CN1C(=O)[C@@H](NC(=O)Oc1ccc2c(c1)B(O)OC2)C(C)(C)C)C(=O)NS(=O)(=O)C1CC1 |
| 8.6 | 8.1 |  | 3.1 |  |  |  |  |  | C=C[C@@H]1C[C@]1(NC(=O)[C@@H]1C[C@@H](Oc2cc(-c3nc(C(C)C)cs3)nc3c(C)c(OC)ccc23)CN1C(=O)[C@@H](NC(=O)Nc1cc2c(cc1F)COB2O)C(C)(C)C)C(=O)NS(=O)(=O)C1CC1 |

— ChEMBL document CHEMBL1759838, “Synthesis and SAR of acyclic HCV NS3 protease inhibitors with novel P4-benzoxaborole moieties” (Bioorg Med Chem Lett, 2011)
